Data from patent US20080051351A1, “Substances, Compositions, and Methods for Treating Alopecia” (priority 2005, published 2008).

Tested on: testosterone 5α-reductase
Assay: Testosterone 5α-reductase micro radioassay (crude nuclear fraction of ventral prostate)
Assay type: biochemical
Conditions: 0.1 mg/ml 17-alpha-estradiol, with or without 20 μg/ml UL-OHA; 37° C., 1 hour
Experimental: The effect of UL-OHA on inhibiting increase in testosterone 5α-reductase activity can be verified with a micro radioassay.
Biopsies of ventral prostate homogenized with 9 volumes of 0.1 M PBS are filtered through gauze and centrifuged at 3000 rpm for 10 minutes to obtain a crude nuclear fraction. The supernatant is discarded and the pellet resuspended in PBS. This process is repeated once again and the second suspension is used as enzyme solution for the assay.
1 mCi of [4-^14C] testosterone with 17-alpha-estradiol+UL-OHA (calculated for a final conc. of 0.1 mg/ml and 20 μg/ml respectively) and 17-alpha-estradiol (final conc. 0.1 mg/ml) are placed in test tubes and heated to dryness under nitrogen flow. 10 μl of 50 mM NADPH, 60 μl of PBS and 30 μl of testosterone 5α-reductase solution are added and the test tubes and incubated at 37° C. for 1 hour. Finally 0.4 ml of chloroform:methanol (1:2 v/v) are added in order to terminate the reaction and the mixture is centrifuged at 3000 rpm for 10 minutes. […]
The radioactive activity of each extract based on the resulting quantity of testosterone, 5α-dihydro-testosterone, 5α-androstan-3α,17β-diol and 5α-androstan-3β,17β-diol is measured by reading the intensity of isotope emission from the plates as described by Hamada K et al. (IFSCC Magazine 4(2):83-87, 2001). […]

- Percentage inhibition of testosterone conversion relative to the control (anti-androgenic activity): 20%
Structure (SMILES): C[C@]12CC[C@@H]3c4ccc(O)cc4CC[C@H]3[C@@H]1CC[C@H]2O [17-alpha-estradiol]
